Holding throughout (assay type): functional
Experiment [1] deals with Bacteroides fragilis. Kind of experiment: In vitro antibacterial activity of compound against Bacteroides fragilis 2017E was determined.
Experiment [2] relates to Clostridium perfringens. As to the kind of experiment: In vitro antibacterial activity of compound against Clostridium perfringens 615E was determined.
Experiment [3] has as its system Enterococcus faecalis. Kind of experiment: In vitro antibacterial activity of compound against Enterococcus faecalis 850.
The subject of experiment [4] is Enterobacter cloacae. Kind of experiment: In vitro antibacterial activity of compound against Enterobacter cloacae 3647 was determined.
Experiment [5] deals with Escherichia coli. As to the kind of experiment: In vitro antibacterial activity of compound against Escherichia coli 1850E WT was determined.
Experiment [6] relates to Escherichia coli. As to the kind of experiment: In vitro antibacterial activity of compound against Escherichia coli 1852E PM was determined.
In experiment [7] the test system is Escherichia coli. As to the kind of experiment: In vitro antibacterial activity of compound against Escherichia coli 1919E PM/TEM-1 was determined.
Experiment [8] concerns Escherichia coli. Kind of experiment: In vitro antibacterial activity of compound against Escherichia coli 851E was determined.
Experiment [9] concerns Proteus mirabilis. As to the kind of experiment: In vitro antibacterial activity of compound against Proteus mirabilis 3558 was determined.
In experiment [10] the test system is Pseudomonas aeruginosa. Kind of experiment: In vitro antibacterial activity of compound against Pseudomonas aeruginosa 1911E was determined.
In experiment [11] the test system is Pseudomonas aeruginosa. Kind of experiment: In vitro antibacterial activity of compound against Pseudomonas aeruginosa 2032E WT was determined.
The test system of experiment [12] is Streptococcus pneumoniae. Kind of experiment: In vitro antibacterial activity of compound against Streptococcus pneumoniae 3512 was determined.
For experiment [13], the system named is Staphylococcus aureus. As to the kind of experiment: In vitro antibacterial activity of compound against Staphylococcus aureus 11311 MET-R.
For experiment [14], the system named is Staphylococcus aureus. Kind of experiment: In vitro antibacterial activity of compound against Staphylococcus aureus 663 PEN-S.
For experiment [15], the system named is Staphylococcus aureus. As to the kind of experiment: In vitro antibacterial activity of compound against Staphylococcus aureus 853E PEN-R.
Experiment [16] concerns Haemophilus influenzae. As to the kind of experiment: In vitro antibacterial activity of compound against Haemophilus influenzae ATCC 49247 was determined.
The test system of experiment [17] is Klebsiella pneumoniae. Kind of experiment: In vitro antibacterial activity of compound against Klebsiella pneumoniae 3226 was determined.
Experiment [18] deals with Pseudomonas aeruginosa. Kind of experiment: In vitro antibacterial activity of compound against Pseudomonas aeruginosa 2033E PER.

≈ marks a conversion by molar mass, not a printed value.

For the compound `C[C@@H](O)[C@H]1C(=O)N2C(C(=O)O)=C(SCCNC=N)C[C@H]12` [IMIPENEM ANHYDROUS], the MIC in [1] came to 0.2 µg/mL (≈ 0.668 µM); in experiment [2], 0.2 µg/mL (≈ 0.668 µM); in experiment [3], 4 µg/mL (≈ 13.4 µM); in [4], 2 µg/mL (≈ 6.68 µM); in experiment [5] it was 0.5 µg/mL (≈ 1.67 µM); in [6], 0.5 µg/mL (≈ 1.67 µM). Moreover, the MIC was 0.5 µg/mL (≈ 1.67 µM) in [7]; 0.5 µg/mL (≈ 1.67 µM) in experiment [8]; 8 µg/mL (≈ 26.7 µM) in experiment [9]; 4 µg/mL (≈ 13.4 µM) in experiment [10]; 4 µg/mL (≈ 13.4 µM) in [11]; < 0.01 µg/mL in experiment [12]. Moreover, the MIC in [13] is > 32 µg/mL; in experiment [14], 0.06 µg/mL (≈ 0.2 µM); in experiment [15], 0.06 µg/mL (≈ 0.2 µM); in experiment [16], 1 µg/mL (≈ 3.34 µM); in experiment [17] it was 0.5 µg/mL (≈ 1.67 µM); in [18] it was 0.2 µg/mL (≈ 0.668 µM).
In the case of `CO[C@H]1CC[C@H]2C(=C(C(=O)O)N3C(=O)[C@H]([C@@H](C)O)[C@@H]23)C1`, the MIC in experiment [1] is 16 µg/mL (≈ 56.9 µM); in experiment [2] it was 2 µg/mL (≈ 7.11 µM); in [3], 8 µg/mL (≈ 28.4 µM); in [4] it was 32 µg/mL (≈ 114 µM); in experiment [5], 8 µg/mL (≈ 28.4 µM); in experiment [6], 1 µg/mL (≈ 3.55 µM). Also, the MIC in experiment [7] was 2 µg/mL (≈ 7.11 µM); in [8], 8 µg/mL (≈ 28.4 µM); in experiment [9], 8 µg/mL (≈ 28.4 µM); in experiment [10], > 32 µg/mL; in experiment [11], > 32 µg/mL; in experiment [12], 0.12 µg/mL (≈ 0.427 µM). Moreover, the MIC is > 32 µg/mL in [13]; 0.5 µg/mL (≈ 1.78 µM) in [14]; 1 µg/mL (≈ 3.55 µM) in experiment [15]; 4 µg/mL (≈ 14.2 µM) in [16]; 4 µg/mL (≈ 14.2 µM) in experiment [17]; 16 µg/mL (≈ 56.9 µM) in [18].
For the compound `CO[C@H]1CCC[C@H]2C1=C(C(=O)[O-])N1C(=O)[C@H]([C@@H](C)O)[C@@H]21.[Na+]` [SANFETRINEM SODIUM], the MIC in [1] was 0.06 µg/mL; in [2], 0.03 µg/mL; in experiment [3] it was 1 µg/mL; in experiment [5] it was 0.5 µg/mL; in experiment [7] it was 0.5 µg/mL; in experiment [10] it was > 32 µg/mL. Further, the values for the MIC in experiment [12] and in [15] were 0.01 µg/mL and 0.2 µg/mL, respectively.
As to `COCC[C@H]1CC[C@H]2C(=C(C(=O)O)N3C(=O)[C@H]([C@@H](C)O)[C@@H]23)C1`, the MIC was found to be 16 µg/mL (≈ 51.7 µM) in [1]; 2 µg/mL (≈ 6.46 µM) in [2]; 8 µg/mL (≈ 25.9 µM) in [3]; 32 µg/mL (≈ 103 µM) in experiment [4]; 8 µg/mL (≈ 25.9 µM) in experiment [5]; 1 µg/mL (≈ 3.23 µM) in [6]. Besides, the MIC in [7] was 2 µg/mL (≈ 6.46 µM); in [8], 8 µg/mL (≈ 25.9 µM); in experiment [9], 8 µg/mL (≈ 25.9 µM); in experiment [10], > 32 µg/mL; in experiment [11], > 32 µg/mL; in experiment [12] it was 0.12 µg/mL (≈ 0.388 µM). Further, the MIC in experiment [13] was > 32 µg/mL; in [14] it was 0.5 µg/mL (≈ 1.62 µM); in [15] it was 1 µg/mL (≈ 3.23 µM); in [16], 4 µg/mL (≈ 12.9 µM); in [17] it was 4 µg/mL (≈ 12.9 µM); in experiment [18] it was 16 µg/mL (≈ 51.7 µM).
As for `C[C@@H](O)[C@H]1C(=O)N2C(C(=O)O)=C3C[C@@H](CCO)CC[C@@H]3[C@H]12`, the MIC in experiment [1] was 16 µg/mL (≈ 54.2 µM); in [2], 4 µg/mL (≈ 13.5 µM); in experiment [3], 4 µg/mL (≈ 13.5 µM); in experiment [4], 4 µg/mL (≈ 13.5 µM); in experiment [5], 2 µg/mL (≈ 6.77 µM); in [6], 2 µg/mL (≈ 6.77 µM). Also, the MIC in experiment [7] was 2 µg/mL (≈ 6.77 µM); in [8], 1 µg/mL (≈ 3.39 µM); in [9] it was 8 µg/mL (≈ 27.1 µM); in experiment [10] it was > 32 µg/mL; in experiment [11], > 32 µg/mL; in experiment [12], 0.25 µg/mL (≈ 0.846 µM). In addition, the MIC in experiment [13] was > 32 µg/mL; in experiment [14], 0.25 µg/mL (≈ 0.846 µM); in experiment [15], 0.5 µg/mL (≈ 1.69 µM); in experiment [16] it was 1 µg/mL (≈ 3.39 µM); in experiment [17] it was 2 µg/mL (≈ 6.77 µM); in experiment [18], 4 µg/mL (≈ 13.5 µM).
